Assay results reported in patent US9833497B2, “Human originated EGF domain proteins and use of the same” (CHENGDU SOURCEBIO LIMITED-LIABILITY COMPANY, priority 2013, dated 2017).

How the values were obtained:
Assay type in all cases: cell-based
E. coli DH5α = assay: Antibacterial activity: MIC and growth curve against E. coli DH5α in 96-well plate; settings: minimal inhibitory concentration against E. coli DH5α; 96-well plate, 5×10^5 CFU/mL, 37° C., judged after 8 h
How it was run: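 Log-phase bacteria (OD600 ~0.5) resuspended in LB at 5×10^5 CFU/mL, exposed to recombinant protein at 50, 25, 12.5 μg/mL final in triplicate, 37 °C shaking at 175 rpm. OD600 read every 30 min; MIC is lowest concentration showing no growth.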

E. coli BL21 = assay: MIC against Gram-negative bacteria: E. coli BL21
How it was run: (§1)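 Two-fold serial dilutions of each purified human EGF domain protein, three replicate wells per level, were combined with bacteria at a final 5×10^5 CFU/mL in LB. Cultures were shaken at 175 rpm, 37° C. The MIC was taken as the minimum concentration preventing growth.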

Pseudomonas aeruginosa = assay: MIC against Gram-negative bacteria: Pseudomonas aeruginosa
How it was run: as §1

Klebsiella pneumonia = assay: MIC against Gram-negative bacteria: Klebsiella pneumonia
How it was run: as §1

Enterobacter cloacae = assay: MIC against Gram-negative bacteria: Enterobacter cloacae
How it was run: as §1

Aeromonas hydrophila = assay: MIC against Gram-negative bacteria: Aeromonas hydrophila
How it was run: as §1

Citrobacter diversus = assay: MIC against Gram-negative bacteria: Citrobacter diversus
How it was run: as §1

Moraxella catarrhalis = assay: MIC against Gram-negative bacteria: Moraxella catarrhalis
How it was run: as §1

Proteus mirabilis = assay: MIC against Gram-negative bacteria: Proteus mirabilis
How it was run: as §1

Proteus vulgaris = assay: MIC against Gram-negative bacteria: Proteus vulgaris
How it was run: as §1

Serratia marcescens = assay: MIC against Gram-negative bacteria: Serratia marcescens
How it was run: as §1

[1] = E. coli BL21, 10 h cultivation at 37° C.
[2] = P. aeruginosa, 10 h cultivation at 37° C.
[3] = K. pneumonia, 10 h cultivation at 37° C.
[4] = E. cloacae, 10 h cultivation at 37° C.
[5] = A. hydrophila, 10 h cultivation at 37° C.
[6] = C. diversus, 10 h cultivation at 37° C.
[7] = M. catarrhalis, 10 h cultivation at 37° C.
[8] = P. mirabilis, 10 h cultivation at 37° C.
[9] = P. vulgaris, 10 h cultivation at 37° C.
[10] = S. marcescens, 10 h cultivation at 37° C.
[11] = 10 h cultivation at 37° C., 5×10^5 CFU/mL, two-fold serial dilution
[12] = 96-well plate, 5×10^5 CFU/mL, 37° C., 10 h

PRT897 (DPNPCLSTPCKNAGTCHVVDRRGVADYACSCALGFSGPLCL; listed as Homo sapiens)
12.5 µg/mL: MIC (Pseudomonas aeruginosa; [2]) | MIC (Enterobacter cloacae; [4]) | MIC (Citrobacter diversus; [6]) | MIC (Proteus vulgaris; [9])
50 µg/mL: MIC (E. coli DH5α) | MIC (Klebsiella pneumonia; [3]) | MIC (Aeromonas hydrophila; [5]) | MIC (Moraxella catarrhalis; [7])
25 µg/mL: MIC (E. coli BL21; [1]) | MIC (Proteus mirabilis; [8]) | MIC (Serratia marcescens; [10])

PRT1408 (NEICSVDCGSHGVCMGGTCRCEEGWTGPACNQ; listed as Homo sapiens)
25 µg/mL: MIC (E. coli DH5α) | MIC against P. aeruginosa (Pseudomonas aeruginosa; Pseudomonas aeruginosa, 5×10^5 CFU/mL, 10 h cultivation at 37° C.) | MIC against E. cloacae (Enterobacter cloacae; Enterobacter cloacae, 5×10^5 CFU/mL, 10 h cultivation at 37° C.) | MIC against S. marcescens (Serratia marcescens; Serratia marcescens, 5×10^5 CFU/mL, 10 h cultivation at 37° C.)
12.5 µg/mL: MIC against E. coli BL21 (E. coli BL21; E. coli BL21, 5×10^5 CFU/mL, 10 h cultivation at 37° C.) | MIC against K. pneumonia (Klebsiella pneumonia; Klebsiella pneumonia, 5×10^5 CFU/mL, 10 h cultivation at 37° C.) | MIC against A. hydrophila (Aeromonas hydrophila; Aeromonas hydrophila, 5×10^5 CFU/mL, 10 h cultivation at 37° C.) | MIC against C. diversus (Citrobacter diversus; Citrobacter diversus, 5×10^5 CFU/mL, 10 h cultivation at 37° C.) | MIC against M. catarrhalis (Moraxella catarrhalis; Moraxella catarrhalis, 5×10^5 CFU/mL, 10 h cultivation at 37° C.) | MIC against P. mirabilis (Proteus mirabilis; Proteus mirabilis, 5×10^5 CFU/mL, 10 h cultivation at 37° C.) | MIC against P. vulgaris (Proteus vulgaris; Proteus vulgaris, 5×10^5 CFU/mL, 10 h cultivation at 37° C.)

PRT1171 (NTNDCSPHPCYNSGTCVDGDNWYRCECAPGFAGPDCR; listed as Homo sapiens)
50 µg/mL: MIC M. catarrhalis (Moraxella catarrhalis; [11]) | MIC P. vulgaris (Proteus vulgaris; [11])
25 µg/mL: MIC P. aeruginosa (Pseudomonas aeruginosa; [11]) | MIC S. marcescens (Serratia marcescens; [11])
12.5 µg/mL: MIC (E. coli DH5α) | MIC E. coli BL21 (E. coli BL21; [11]) | MIC K. pneumonia (Klebsiella pneumonia; [11]) | MIC E. cloacae (Enterobacter cloacae; [11]) | MIC A. hydrophila (Aeromonas hydrophila; [11]) | MIC C. diversus (Citrobacter diversus; [11]) | MIC P. mirabilis (Proteus mirabilis; [11])

PRT1011 (RAPSCGFHHCHHGGLCLPSPKPGFPPRCACLSGYGGPDCL; listed as Homo sapiens)
25 µg/mL: MIC (Citrobacter diversus; [6]) | MIC (Proteus mirabilis; [8]) | MIC (Serratia marcescens; [10])
50 µg/mL: MIC (E. coli BL21; [1]) | MIC (Klebsiella pneumonia; [3]) | MIC (Aeromonas hydrophila; [5]) | MIC (Proteus vulgaris; [9])
12.5 µg/mL: MIC (E. coli DH5α) | MIC (Pseudomonas aeruginosa; [2]) | MIC (Enterobacter cloacae; [4]) | MIC (Moraxella catarrhalis; [7])

PRT963 (QVDECRSQPCRHGGKCLDLVDKYLCRCPSGTTGVNCE; listed as Homo sapiens)
12.5 µg/mL: MIC (Klebsiella pneumonia; [3]) | MIC (Moraxella catarrhalis; [7])
25 µg/mL: MIC (E. coli DH5α) | MIC (Pseudomonas aeruginosa; [2]) | MIC (Enterobacter cloacae; [4]) | MIC (Citrobacter diversus; [6]) | MIC (Proteus vulgaris; [9]) | MIC (Serratia marcescens; [10])
50 µg/mL: MIC (E. coli BL21; [1]) | MIC (Aeromonas hydrophila; [5]) | MIC (Proteus mirabilis; [8])

PRT590 (CDCNILGSRRDMPCDEESGRCLCLPNVVGPKCDQCAPYHWKLASGQGCEP; listed as Homo sapiens)
25 µg/mL: MIC against E. coli BL21 (E. coli BL21; [12]) | MIC against K. pneumonia (Klebsiella pneumonia; [12]) | MIC against A. hydrophila (Aeromonas hydrophila; [12]) | MIC against M. catarrhalis (Moraxella catarrhalis; [12]) | MIC against P. vulgaris (Proteus vulgaris; [12])
50 µg/mL: MIC (E. coli DH5α) | MIC against E. cloacae (Enterobacter cloacae; [12]) | MIC against P. mirabilis (Proteus mirabilis; [12])
12.5 µg/mL: MIC against P. aeruginosa (Pseudomonas aeruginosa; [12]) | MIC against C. diversus (Citrobacter diversus; [12]) | MIC against S. marcescens (Serratia marcescens; [12])

PRT217 (DIDECTIPPYCHQRCVNTPGSFYCQCSPGFQLAANNYTCV; listed as Homo sapiens)
50 µg/mL: MIC (μg/mL) S. marcescens (Serratia marcescens; S. marcescens, 10 h cultivation at 37° C., 5×10^5 CFU/mL)
25 µg/mL: MIC (μg/mL) E. coli BL21 (E. coli BL21; E. coli BL21, 10 h cultivation at 37° C., 5×10^5 CFU/mL) | MIC (μg/mL) K. pneumonia (Klebsiella pneumonia; K. pneumonia, 10 h cultivation at 37° C., 5×10^5 CFU/mL) | MIC (μg/mL) A. hydrophila (Aeromonas hydrophila; A. hydrophila, 10 h cultivation at 37° C., 5×10^5 CFU/mL)
12.5 µg/mL: MIC (E. coli DH5α) | MIC (μg/mL) P. aeruginosa (Pseudomonas aeruginosa; P. aeruginosa, 10 h cultivation at 37° C., 5×10^5 CFU/mL) | MIC (μg/mL) E. cloacae (Enterobacter cloacae; E. cloacae, 10 h cultivation at 37° C., 5×10^5 CFU/mL) | MIC (μg/mL) C. diversus (Citrobacter diversus; C. diversus, 10 h cultivation at 37° C., 5×10^5 CFU/mL) | MIC (μg/mL) M. catarrhalis (Moraxella catarrhalis; M. catarrhalis, 10 h cultivation at 37° C., 5×10^5 CFU/mL) | MIC (μg/mL) P. mirabilis (Proteus mirabilis; P. mirabilis, 10 h cultivation at 37° C., 5×10^5 CFU/mL) | MIC (μg/mL) P. vulgaris (Proteus vulgaris; P. vulgaris, 10 h cultivation at 37° C., 5×10^5 CFU/mL)
